{"source": "patent US12186413B2", "about": "“Non-cellular root canal filler and non-cellular dental tissue regeneration promotion kit” (KOWA COMPANY, LTD., priority 2019, dated 2025)", "key": {"dental pulp [1]": {"system": "dental pulp", "experiment": "Dental pulp regeneration after pulpectomy in young dogs with non-cellular root canal filler", "format": "in vivo, dog", "settings": "for dental pulp regeneration (H-E staining, morphological observation) / infiltration / internal absorption of inflammatory cells: 12-month-old dogs; for dental pulp regeneration (H-E staining, morphological observation) / infiltration / internal absorption of inflammatory cells / regeneration of dental pulp-like tissues (H-E staining): trypsin pretreatment; for dental pulp regeneration (H-E staining, morphological observation): 1.25 μg compound B or 0.83 μg SB328437 + 150 ng G-CSF in 20 μl collagen; for infiltration / internal absorption of inflammatory cells: filler with G-CSF and collagen; for amount of the regenerated dental pulp (ratio of regenerated dental pulp area to dental pulp cavity area): compound B filler compared with SB328437 filler", "experimental": "After general anesthesia, pulpectomy was performed for maxillary and mandibular right and left anterior teeth in young (12-month-old) dogs. The openings were enlarged to the apex of the root with #55, then washed alternately with a 5% sodium hypochlorite solution and a 3% hydrogen peroxide solution, further washed with saline, dried, and then temporarily sealed with a resin completely. At 3 to 12 days after the pulpectomy, the temporary seals were removed, and the openings were washed alternately and washed with saline again. Then, the root canals were filled with 3% EDTA (Smear Clean, Nippon Shika Yakuhin Co., Ltd.), treated for 2 minutes, further washed with saline, and dried. Then, the root canals were pretreated by the application of trypsin preparation (5 mg of Francetin T powder (2,500 USP crystal trypsin per 10 mg, Mochida Pharmaceutical Co., Ltd.)/ml of 0.5% nanobubble water (prepared with Foamest 8 (NAC Corp.); see Koichiro Iohara and Misako Nakajima “Enhanced Delivery of Antibacterial Nanopolymers with Nanobubbles for the Complete Disinfection of the Root Canal System in a Canine Model of Intractable Periapical Disease”, The Japanese Journal Of Conservative Dentistry, Vol. 63, No. 1, p. 73-82) for 10 minutes, and then washed with saline. Subsequently, a CCR3 antagonist (1.25 μg of compound B or 0.83 μg of SB328437 (Tocris Bioscience)) as a regeneration promoting compound and 150 ng of G-CSF (Neutrogin, Chugai Pharmaceutical Co., Ltd.) as a chemotactic factor were added to 20 μl of extracellular matrix collagen (Koken Atelocollagen Implant, Koken Co., Ltd.) to prepare a non-cellular root canal filler, which was then filled into the root canals. Then, a gelatin sponge for hemostasis (Spongel, Astellas Pharma Inc.) was placed thereon, and the cavities were completely sealed with glass ionomer cement and a photopolymerizable resin. Then, 28 days after transplantation, the teeth were extracted, and 5 μm paraffin sections were prepared on longitudinal sections according to a standard method, stained with H-E, and then morphologically observed. The amount of the regenerated dental pulp was evaluated by measuring the ratio of the area of regenerated dental pulp to the area of a dental pulp cavity as to four sections per sample, and calculating the mean of four samples. Angiogenesis was evaluated by staining day 28 specimens with Fluorescein labeled Griffonia simplicifolia (Bandeiraea simplicifolia) Lectin I (GSL I, BSL I) and Fluorescein labeled Galanthus nivalis (Snowdrop) Lectin (GNL) (Vector Laboratories) (20 μg/ml) for 15 minutes, followed by comparative examination. Neurite extension was evaluated by immunostaining day-28 specimens with an anti-PGP9.5 antibody (UltraClone, 1:10,000), followed by comparative examination.\nAfter general anesthesia, pulpectomy was performed for maxillary and mandibular right and left anterior teeth in young (11-month-old) dogs. The openings were enlarged to the apex of the root with #55, then washed alternately with a 5% sodium hypochlorite solution and a 3% hydrogen peroxide solution, and further washed with saline. The root canals were thoroughly dried with a paper point and temporarily sealed with cement and a resin completely after hemostasis. Then, 8 days after the pulpectomy, the temporary seals were removed, and the openings were washed alternately and washed with saline again. Then, the root canals were filled with 3% EDTA (Smear Clean, Nippon Shika Yakuhin Co., Ltd.), treated for 2 minutes, further washed with saline, and dried. Then, the root canals were pretreated by the application of a trypsin preparation (5 mg of Francetin T powder (2,500 USP crystal trypsin per 10 mg), Mochida Pharmaceutical Co., Ltd.)/ml of 0.5% nanobubble water (prepared with Foamest 8 (NAC Corp.); as described in Example 1)) for 10 minutes, and then washed with saline. […]"}, "dental pulp [2]": {"system": "dental pulp", "settings": "cited from earlier work"}, "dental pulp stem cells": {"system": "dental pulp stem cells", "settings": "dentin surfaces treated with trypsin in vitro; cited from earlier work"}, "[3]": {"settings": "Example 3, compound B filler, 28 days"}, "[4]": {"settings": "Example 3, with and without trypsin pretreatment, 28 days"}}, "note": "Read-outs that look alike come from different tables or passages of the source."}
{"compound": "COC(=O)[C@H](Cc1ccc([N+](=O)[O-])cc1)NC(=O)c1cccc2ccccc12", "note": "[SB328437, reference compound]", "values": [{"measurement": "dental pulp regeneration (H-E staining, morphological observation)", "setting": "dental pulp [1]; Example 1, 28 days", "value": "found to cause dental pulp regeneration of loose connective tissues rich in blood vessels"}, {"measurement": "infiltration / internal absorption of inflammatory cells", "setting": "dental pulp [1]; Example 1, 28 days", "value": "neither the infiltration nor internal absorption of inflammatory cells was observed"}, {"measurement": "amount of the regenerated dental pulp (ratio of regenerated dental pulp area to dental pulp cavity area)", "setting": "dental pulp [1]; Example 1, 28 days", "value": "No statistically significant difference"}, {"measurement": "angiogenesis (lectin staining)", "setting": "dental pulp [1]; Example 1, day 28 specimens", "value": "confirmed"}, {"measurement": "neurite extension (PGP9.5 immunostaining)", "setting": "dental pulp [1]; Example 1, day 28 specimens", "value": "confirmed"}, {"measurement": "odontoblast-like cell adhesion to dentin side wall / dentin-like hard tissue formation", "setting": "dental pulp [1]; Example 1, day 28 specimens", "value": "odontoblast-like cells adhere to the side wall of the dentin to form dentin-like hard tissues"}]}
{"compound": "trypsin", "values": [{"measurement": "dental pulp regeneration", "setting": "dental pulp [2]; middle-aged and elderly dogs, with dental pulp stem cell transplantation", "value": "promoted"}, {"measurement": "dental pulp regeneration", "setting": "dental pulp [2]; without the transplantation of dental pulp stem cells", "value": "rarely observed"}, {"measurement": "dental pulp regeneration", "setting": "dental pulp [2]; young dogs, with dental pulp stem cell transplantation", "value": "not found to be effective"}, {"measurement": "adhesion of the cells", "setting": "dental pulp stem cells", "value": "increased the adhesion of the cells"}, {"measurement": "differentiation into odontoblasts", "setting": "dental pulp stem cells", "value": "exhibited enhancement in differentiation into odontoblasts"}]}
{"compound": "CC(C)Nc1ccc(CNCCN2Cc3ccc(F)cc3CC2Cc2ccc(F)cc2)cc1.O=C(O)/C=C/C(=O)O", "note": "(single isomer, unassigned; (+)) [compound B, (+)-4-[[2-[6-fluoro-3-(4-fluorobenzyl)-3,4-dihydroisoquinolin-2(1H)-yl]ethylamino]methyl]-N-isopropylaniline monofumarate]", "values": [{"measurement": "dental pulp regeneration (H-E staining, morphological observation)", "setting": "dental pulp [1]; Example 1, 28 days", "value": "found to cause dental pulp regeneration of loose connective tissues rich in blood vessels"}, {"measurement": "infiltration / internal absorption of inflammatory cells", "setting": "dental pulp [1]; Example 1, 28 days", "value": "neither the infiltration nor internal absorption of inflammatory cells was observed"}, {"measurement": "amount of the regenerated dental pulp (ratio of regenerated dental pulp area to dental pulp cavity area)", "setting": "dental pulp [1]; Example 1, 28 days", "value": "No statistically significant difference"}, {"measurement": "angiogenesis (lectin staining)", "setting": "dental pulp [1]; Example 1, day 28 specimens", "value": "confirmed"}, {"measurement": "neurite extension (PGP9.5 immunostaining)", "setting": "dental pulp [1]; Example 1, day 28 specimens", "value": "confirmed"}, {"measurement": "odontoblast-like cell adhesion to dentin side wall / dentin-like hard tissue formation", "setting": "dental pulp [1]; Example 1, day 28 specimens", "value": "odontoblast-like cells adhere to the side wall of the dentin to form dentin-like hard tissues"}, {"measurement": "regeneration of dental pulp-like tissues (H-E staining)", "setting": "dental pulp [1]; Example 2, 11-month-old dogs, 1.25 μg compound B + 150 ng G-CSF in collagen, 28 days", "value": "found to sufficiently regenerate dental pulp-like tissues"}, {"measurement": "amount of the regenerated dental pulp versus filler containing no compound B", "setting": "dental pulp [1]; Example 2, 28 days", "value": "Statistically significant difference"}, {"measurement": "angiogenesis (BS-1 lectin staining) versus filler containing no compound B", "setting": "dental pulp [1]; Example 2, 28 days", "value": "similar"}, {"measurement": "neurite extension (PGP9.5 immunostaining) versus filler containing no compound B", "setting": "dental pulp [1]; Example 2, 28 days", "value": "similar"}, {"measurement": "regeneration of dental pulp tissues (H-E staining)", "setting": "dental pulp [1]; Example 3, 11-month-old dogs, with or without trypsin pretreatment, 1.25 μg compound B + 150 ng G-CSF in collagen, 28 days", "value": "regeneration of dental pulp tissues was observed, regardless of whether trypsin pretreatment was performed or not"}, {"measurement": "amount of regenerated dental pulp, with versus without trypsin pretreatment", "setting": "dental pulp [1]; [3]", "value": "tended to slightly increase the amount of regenerated dental pulp, albeit with no statistically significant difference"}, {"measurement": "odontoblast-like cell adhesion to dentin side wall and dentin-like hard tissue amount, with versus without trypsin pretreatment", "setting": "dental pulp [1]; [3]", "value": "tended to allow more odontoblast-like cells to adhere to the side wall of the dentin and form dentin-like hard tissues in a slightly higher amount"}, {"measurement": "angiogenesis (BS-1 lectin staining)", "setting": "dental pulp [1]; [4]", "value": "similarly observed in both these cases"}, {"measurement": "neurite extension (PGP9.5 immunostaining)", "setting": "dental pulp [1]; [4]", "value": "similarly observed in both these cases"}, {"measurement": "dental pulp regeneration, odontoblast-like cell adhesion and dentin-like hard tissue formation", "setting": "dental pulp [1]; Example 3, without trypsin pretreatment, 28 days", "value": "regenerates the dental pulp with angiogenesis and neurite extension"}]}
{"compound": "CS(=O)(=O)Nc1cccc(CNCCN2Cc3ccc(F)cc3CC2Cc2ccc(F)cc2)c1.O=C(O)CC(O)(CC(=O)O)C(=O)O", "note": "(single isomer, unassigned; (+)) [compound C, (+)-N-[3-(methanesulfonylamino)benzyl]-2-[6-fluoro-3-(4-fluorobenzyl)-3,4-dihydroisoquinolin-2(1H)-yl]ethanamine monocitrate]", "values": [{"measurement": "regeneration of dental pulp-like tissues (H-E staining)", "setting": "dental pulp [1]; Example 4, 11-month-old dogs, 1.2 μg compound C + 150 ng G-CSF in collagen, 28 days", "value": "found to sufficiently regenerate dental pulp-like tissues"}, {"measurement": "area of the dentin (ratio to area of tooth) versus filler containing no compound C", "setting": "dental pulp [1]; Example 4, 28 days", "value": "tended to increase the area of the dentin"}, {"measurement": "density of dentin cells (within 1 mm from root canal side wall) versus filler containing no compound C", "setting": "dental pulp [1]; Example 4, 28 days", "value": "increased the density of dentin cells"}]}
